The source made the active and inactive calls. The rule behind the calls is not given here.
Tests used:
J774.A1 [1] = assay: Anti-inflammatory activity in mouse J774.A1 cells assessed as inhibition of LPS-induced TNF-alpha production at 10 uM pre-stimulated with LPS for 24 hrs followed by compound addition and measured after 0.5 hrs by ELISA analysis relative to control; format: functional
J774.A1 [2] = assay: Anti-inflammatory activity in mouse J774.A1 cells assessed as inhibition of LPS-induced IL-6 production at 10 uM pre-stimulated with LPS for 24 hrs followed by compound addition and measured after 0.5 hrs by ELISA analysis relative to control; format: functional
[3] = biological target: T1, Myeloid differentiation primary response protein MyD88 (Homo sapiens, UniProt Q99836); assay: Binding affinity to human MyD88 TIR domain assessed as equilibrium dissociation constant by SPR analysis
J774.A1 [4] = assay: Anti-inflammatory activity in mouse J774.A1 cells assessed as suppression of LPS-induced IL-6 production by ELISA analysis; format: functional, cell-based
J774.A1 [5] = assay: Anti-inflammatory activity in mouse J774.A1 cells assessed as inhibition of LPS-induced IL-6 production pre-stimulated with LPS for 24 hrs followed by compound addition and measured after 0.5 hrs by ELISA analysis; format: functional, cell-based
J774.A1 [6] = assay: Anti-inflammatory activity in mouse J774.A1 cells assessed as inhibition of LPS-induced TNF-alpha production pre-stimulated with LPS for 24 hrs followed by compound addition and measured after 0.5 hrs by ELISA analysis; format: functional, cell-based
[7] = biological target: T1, Myeloid differentiation primary response protein MyD88; assay: Binding affinity to human MyD88 TIR domain by SPR analysis; conditions: dose 1.19-5.94 10^-5M
J774.A1 [8] = assay: Cytotoxicity against mouse J774.A1 cells assessed as reduction in cell survival incubated for 24 hrs by MTT assay; format: toxicity, cell-based; conditions: j774.a1, 24 h

T1 sequence (Q99836 whole entry, the tested form may be a part): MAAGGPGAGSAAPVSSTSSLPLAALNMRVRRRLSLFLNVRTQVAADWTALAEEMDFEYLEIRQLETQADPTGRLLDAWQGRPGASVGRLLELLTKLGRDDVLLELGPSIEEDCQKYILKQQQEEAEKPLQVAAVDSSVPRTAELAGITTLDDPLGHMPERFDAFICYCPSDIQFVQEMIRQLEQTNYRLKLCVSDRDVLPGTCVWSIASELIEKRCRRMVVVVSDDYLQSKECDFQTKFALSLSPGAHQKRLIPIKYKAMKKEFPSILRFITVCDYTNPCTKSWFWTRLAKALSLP

SMILES	inhibition at 10 µM (J774.A1 [2]) [%]	inhibition at 10 µM (J774.A1 [1]) [%]	also measured
CC(=O)N1CCN(Cc2ccc3c(=O)[nH]c(-c4ccccc4)nc3c2)CC1	26	–	inhibition (J774.A1 [1]): inactive
COCCN1CCN(c2ccc(S(=O)(=O)NCc3ccccn3)cc2[N+](=O)[O-])CC1	50.4	11.8	–
O=[N+]([O-])c1cc(S(=O)(=O)NCc2ccccn2)ccc1N1CCN(CCO)CC1	37.8	6.63	–
O=c1cc(-c2ccncc2)nc(-c2ccc(CN3CCN(CCO)CC3)cc2)[nH]1	33.5	8.59	Kd [3]: 795 µM; Activity (J774.A1 [4]): Active
O=c1[nH]c(-c2ccc(CN3CCN(CCO)CC3)cc2)nc2ccccc12	57.1	–	inhibition (J774.A1 [1]): inactive
COc1ccc(NS(=O)(=O)c2ccc(N3CCN(Cc4ccccc4)CC3)c([N+](=O)[O-])c2)cn1	55.1	27.7	–
COc1ccc(-c2cc(-c3ccc(CN4CCN(CCO)CC4)cc3)nc(=O)[nH]2)cc1	8.43	33.7	–
COCCN1CCN(Cc2ccc(-c3cc(-c4ccc(OC)cc4)[nH]c(=O)n3)cc2)CC1	14.8	40.8	–
COc1ccc(NS(=O)(=O)c2ccc(N3CCN(CCO)CC3)c([N+](=O)[O-])c2)cn1	22.2	–	inhibition (J774.A1 [1]): inactive
COCCN1CCN(c2ccc(C(=O)Nc3ccccc3)cc2[N+](=O)[O-])CC1	47.8	26.9	–
O=C(Nc1cccc2ccccc12)c1ccc(N2CCN(Cc3cccc([N+](=O)[O-])c3)CC2)c([N+](=O)[O-])c1	62.2	39.8	–
O=[N+]([O-])c1cc(S(=O)(=O)Nc2ccccc2)ccc1N1CCN(CCO)CC1	55.6	7.89	–
O=c1nc(-c2ccc(CN3CCN(c4ccc([N+](=O)[O-])cc4)CC3)cc2)cc(-c2ccccc2)[nH]1	15.7	50.6	–
COc1ccc(NS(=O)(=O)c2ccc(N3CCN(c4ncccn4)CC3)c([N+](=O)[O-])c2)cn1	45	22.3	–
O=c1nc(-c2ccc(CN3CCN(CCO)CC3)cc2)cc(-c2ccccc2)[nH]1	18.2	17.9	–
CCCCCNCc1ccc(-c2cc(-c3ccccc3)[nH]c(=O)n2)cc1	17.9	16.1	–
COCCN1CCN(Cc2ccc(-c3nc4ccccc4c(=O)[nH]3)cc2)CC1	34	22.6	–
O=c1[nH]c(-c2ccccc2)nc2cc(CN3CCN(CCO)CC3)ccc12	46	–	inhibition (J774.A1 [1]): inactive
O=C(Nc1ccccc1)c1ccc(N2CCN(c3ccc([N+](=O)[O-])cc3)CC2)c([N+](=O)[O-])c1	14.9	–	inhibition (J774.A1 [1]): inactive
COc1ccc(NS(=O)(=O)c2ccc(N3CCN(Cc4ccc([N+](=O)[O-])cc4)CC3)c([N+](=O)[O-])c2)cn1	71.8	37.9	IC50 (J774.A1 [5]): 3.4 µM; IC50 (J774.A1 [6]): 14.1 µM
O=c1nc(-c2ccc(CNc3nc4ccccc4s3)cc2)cc(-c2ccccc2)[nH]1	79.5	53.3	IC50 (J774.A1 [5]): 0.53 µM; IC50 (J774.A1 [6]): 17.7 µM; Activity [7]: inactive; Activity (J774.A1 [8]): Non-Toxic
O=C(Nc1ccccc1)c1ccc(N2CCN(Cc3cccc([N+](=O)[O-])c3)CC2)c([N+](=O)[O-])c1	–	–	inhibition (J774.A1 [1]): inactive; inhibition (J774.A1 [2]): inactive
O=c1[nH]c(-c2ccc(CN3CCN(c4ccc([N+](=O)[O-])cc4)CC3)cc2)nc2ccccc12	44.1	–	inhibition (J774.A1 [1]): inactive

SMILES	inhibition at 10 µM (J774.A1 [2]) [%]	inhibition at 10 µM (J774.A1 [1]) [%]	also measured
COCCN1CCN(Cc2ccc3c(=O)[nH]c(-c4ccccc4)nc3c2)CC1	29.2	–	inhibition (J774.A1 [1]): inactive
COc1ccc(CN2CCN(c3ccc(S(=O)(=O)Nc4ccc(OC)nc4)cc3[N+](=O)[O-])CC2)cc1	63.5	27.9	–
O=C(Nc1ccccc1)c1ccc(N2CCN(Cc3ccc([N+](=O)[O-])cc3)CC2)c([N+](=O)[O-])c1	–	–	inhibition (J774.A1 [1]): inactive; inhibition (J774.A1 [2]): inactive
O=[N+]([O-])c1cccc(CN2CCN(c3ccc(S(=O)(=O)Nc4ccccc4)cc3[N+](=O)[O-])CC2)c1	71.2	33.9	–
COc1ccc(-c2cc(-c3ccc(CN4CCN(CCOCCO)CC4)cc3)nc(=O)[nH]2)cc1	17.1	27.2	–
O=C(NCc1ccccn1)c1ccc(N2CCN(Cc3ccc([N+](=O)[O-])cc3)CC2)c([N+](=O)[O-])c1	57.6	37	–
O=C(Nc1ccccc1)c1ccc(N2CCN(CCO)CC2)c([N+](=O)[O-])c1	47.5	1.01	–
O=c1[nH]c(-c2ccccc2)nc2cc(CN3CCN(CCOCCO)CC3)ccc12	24.1	–	inhibition (J774.A1 [1]): inactive
CCCCCNCc1ccc(-c2cc(-c3ccc(OC)cc3)[nH]c(=O)n2)cc1	35.3	24.1	–
CC(=O)N1CCN(Cc2ccc(-c3nc4ccccc4c(=O)[nH]3)cc2)CC1	53.7	11.9	–
COCCN1CCN(c2ccc(S(=O)(=O)Nc3ccc(OC)nc3)cc2[N+](=O)[O-])CC1	47.3	1.16	–
O=C(NCc1ccccn1)c1ccc(N2CCN(Cc3cccc([N+](=O)[O-])c3)CC2)c([N+](=O)[O-])c1	33.1	27	–
COCCN1CCN(Cc2ccc(-c3cc(-c4ccc(Br)cc4)[nH]c(=O)n3)cc2)CC1	46.1	41.1	–
O=c1[nH]c(-c2ccccc2)nc2cc(CN3CCN(c4ccc([N+](=O)[O-])cc4)CC3)ccc12	–	–	inhibition (J774.A1 [1]): inactive; inhibition (J774.A1 [2]): inactive
COc1ccc(-c2cc(-c3ccc(CN4CCN(c5ccc([N+](=O)[O-])cc5)CC4)cc3)nc(=O)[nH]2)cc1	35	38.7	–
COc1ccc(NS(=O)(=O)c2ccc(N3CCN(c4cnc(NC(C)=O)s4)CC3)c([N+](=O)[O-])c2)cn1	39.9	12.2	–
COCCN1CCN(c2ccc(S(=O)(=O)Nc3ccccc3)cc2[N+](=O)[O-])CC1	60.3	16.9	–
O=c1nc(-c2ccc(CN3CCN(CCOCCO)CC3)cc2)cc(-c2ccc(Br)cc2)[nH]1	58.4	22.6	–
COCCN1CCN(Cc2ccc(-c3cc(-c4ccccc4)[nH]c(=O)n3)cc2)CC1	–	25.6	inhibition (J774.A1 [2]): inactive
CC(=O)N1CCN(Cc2ccc(-c3cc(-c4ccc(Br)cc4)[nH]c(=O)n3)cc2)CC1	–	–	inhibition (J774.A1 [1]): inactive; inhibition (J774.A1 [2]): inactive
O=C(NCc1ccccn1)c1ccc(N2CCN(Cc3ccccc3)CC2)c([N+](=O)[O-])c1	36.4	35.4	–
O=c1nc(-c2ccc(CN3CCN(CCOCCO)CC3)cc2)cc(-c2ccccc2)[nH]1	19.3	14.2	–
O=c1nc(-c2ccc(CN3CCN(CCO)CC3)cc2)cc(-c2ccc(Br)cc2)[nH]1	7.52	29.6	–
